According to patent US12667101B2, “Picolinamide derivatives useful as agricultural fungicides” (GLOBACHEM NV, priority 2019, dated 2026):

system: Zymoseptoria tritici; assay: Fungicidal activity screen in amended agar, 96 well plates; type: cell-based; settings: 168 h, 1% potato dextrose agar amended to 20, 2, 0.2 and 0.02 ppm, 10,000 spores/mL, 18° C., assessed after 7 days, read-out: Zymoseptoria (EC50 ranking of fungal growth vs DMSO controls)
Experimental: Compounds were screened in 96 well plates with 10 compounds per plate. Each compound was screened using agar amended to 20, 2, 0.2 and 0.02 ppm of the test material. Proline at 50 and 10 ppm and 0.2% DMSO were used respectively as positive and negative controls. Each test concentration and standard were tested twice on a plate.
Compounds were screened against Zymoseptoria tritici. The agar used in the test was 1% potato dextrose agar. Sufficient spores were added to the appropriate agar to give 10,000 spores/mL agar.
A ×10 stock solution in 2% DMSO was produced for each dose i.e. 200, 20, 2 and 0.2 ppm, and 10 μl of this added to the appropriate wells on the plate. An equivalent amount of 2% DMSO and Proline stock at 500 and 100 ppm were added for the controls. To each well, 90 μl of the appropriate agar spore suspension was added to give the final well concentrations outlined in the first paragraph.
Plates were incubated at room temperature (18° C.) and assessed after 7 days.
The amount of fungal growth in each well was compared to the DMSO controls and scored according to the following key: • A—EC50<2 ppm • B—2≤EC50<20 • C—EC50≥20 • D—No activity detected at the highest dose tested • NT—Not tested

| Structure (SMILES) | EC50 [µg/mL] |
| --- | --- |
| COc1ccnc2c(=O)n(-c3ccc4nc(Sc5ccccc5Cl)ccc4c3)c(=S)oc12 [Example 43, 3-(2-((2-chlorophenyl)thio)quinolin-6-yl)-8-methoxy-2-thioxo-2,3-dihydro-4H-pyrido[2,3-e][1,3]oxazin-4-one] | ≥ 20 |
| COc1ccnc2c(=O)n(-c3ccc4nc(Oc5cccnc5Cl)ccc4c3)c(=S)oc12 [Example 44, 3-(2-((2-chloropyridin-3-yl)oxy)quinolin-6-yl)-8-methoxy-2-thioxo-2,3-dihydro-4H-pyrido[2,3-e][1,3]oxazin-4-one] | ≥ 20 |
| COc1ccnc2c(=O)n(-c3ccc4nc(Sc5cccnc5Cl)ccc4c3)c(=S)oc12 [Example 45, 3-(2-((2-chloropyridin-3-yl)thio)quinolin-6-yl)-8-methoxy-2-thioxo-2,3-dihydro-4H-pyrido[2,3-e][1,3]oxazin-4-one] | ≥ 20 |
| COc1ccnc2c(=O)n(-c3ccc4nc(N(C)c5cccnc5Cl)ccc4c3)c(=S)oc12 [Example 46, 3-(2-((2-chloropyridin-3-yl)(methyl)amino)quinolin-6-yl)-8-methoxy-2-thioxo-2,3-dihydro-4H-pyrido[2,3-e][1,3]oxazin-4-one] | ≥ 20 |
| COc1ccnc(C(=O)Nc2ccc3nc(OC(C)C)ccc3c2)c1OC(C)=O [Example 47, 2-((2-isopropoxyquinolin-6-yl)carbamoyl)-4-methoxypyridin-3-yl acetate] | < 2 |
